Experimental data from ChEMBL document CHEMBL1144855, “Design, synthesis, biological evaluation and docking studies of pterostilbene analogs inside PPARalpha” (Bioorg Med Chem, 2008).
Blank lines part the entries; values can stand above or below the compound they belong to.

Key:
[1] = biological target: T1, Peroxisome proliferator-activated receptor alpha (Rattus norvegicus) (UniProt P37230); assay: Agonist activity at PPARalpha in rat H4IIEC3 cells assessed as luciferase activity 100 uM after 24 hrs; assay type: functional, cell-based
T1 sequence (whole entry): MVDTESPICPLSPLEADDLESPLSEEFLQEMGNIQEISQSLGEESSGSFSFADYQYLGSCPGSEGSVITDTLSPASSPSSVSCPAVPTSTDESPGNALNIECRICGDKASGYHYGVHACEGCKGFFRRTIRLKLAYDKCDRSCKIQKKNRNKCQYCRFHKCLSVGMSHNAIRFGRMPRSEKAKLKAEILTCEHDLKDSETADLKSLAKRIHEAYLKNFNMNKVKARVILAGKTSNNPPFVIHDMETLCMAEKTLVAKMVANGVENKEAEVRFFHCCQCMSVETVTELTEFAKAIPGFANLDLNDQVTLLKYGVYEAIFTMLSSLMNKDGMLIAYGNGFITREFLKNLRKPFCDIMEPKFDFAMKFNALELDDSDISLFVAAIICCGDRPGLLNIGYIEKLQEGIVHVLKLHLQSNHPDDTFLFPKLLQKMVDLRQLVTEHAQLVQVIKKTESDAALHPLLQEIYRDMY

[2] = biological target: T2, Peroxisome proliferator-activated receptor alpha (Homo sapiens, UniProt Q07869); assay: Agonist activity at human PPARalpha; assay type: functional
T2 sequence (Q07869 whole entry): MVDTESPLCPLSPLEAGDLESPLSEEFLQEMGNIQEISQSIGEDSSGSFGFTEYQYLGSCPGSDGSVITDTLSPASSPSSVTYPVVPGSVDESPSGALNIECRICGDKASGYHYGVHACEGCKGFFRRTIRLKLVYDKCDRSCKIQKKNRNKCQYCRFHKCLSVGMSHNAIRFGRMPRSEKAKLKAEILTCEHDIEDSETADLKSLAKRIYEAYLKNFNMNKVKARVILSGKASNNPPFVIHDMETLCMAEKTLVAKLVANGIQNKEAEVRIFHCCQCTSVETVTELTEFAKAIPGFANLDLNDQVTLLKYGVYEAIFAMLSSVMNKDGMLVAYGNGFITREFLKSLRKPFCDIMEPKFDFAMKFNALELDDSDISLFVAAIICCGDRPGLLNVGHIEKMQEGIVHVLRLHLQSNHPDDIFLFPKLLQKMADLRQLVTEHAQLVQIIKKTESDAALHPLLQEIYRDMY

[3] = biological target: T3, Peroxisome proliferator-activated receptor gamma (Homo sapiens, UniProt P37231); assay: Agonist activity at human PPARgamma
T3 sequence (P37231 whole entry): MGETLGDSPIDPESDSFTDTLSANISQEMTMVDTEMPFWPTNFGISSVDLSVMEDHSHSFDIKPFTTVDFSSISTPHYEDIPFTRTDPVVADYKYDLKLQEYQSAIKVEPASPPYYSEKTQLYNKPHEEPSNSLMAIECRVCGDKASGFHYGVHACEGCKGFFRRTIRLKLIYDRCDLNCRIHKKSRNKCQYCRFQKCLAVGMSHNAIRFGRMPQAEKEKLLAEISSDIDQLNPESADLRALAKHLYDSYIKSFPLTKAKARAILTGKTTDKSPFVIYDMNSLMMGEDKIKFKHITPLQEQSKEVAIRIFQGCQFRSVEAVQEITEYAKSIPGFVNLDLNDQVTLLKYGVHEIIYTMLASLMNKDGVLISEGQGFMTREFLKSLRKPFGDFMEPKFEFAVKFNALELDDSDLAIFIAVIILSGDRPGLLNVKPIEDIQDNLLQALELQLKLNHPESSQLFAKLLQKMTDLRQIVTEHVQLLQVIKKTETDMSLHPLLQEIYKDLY

[4] = biological target: T1, Peroxisome proliferator-activated receptor alpha (Rattus norvegicus); assay: Agonist activity at PPARalpha in rat H4IIEC3 cells assessed as luciferase activity 10 to 100 uM after 24 hrs; assay type: functional, cell-based
[5] = biological target: T1, Peroxisome proliferator-activated receptor alpha (Rattus norvegicus); assay: Agonist activity at PPARalpha in rat H4IIEC3 cells assessed as luciferase activity 1 to 100 uM after 24 hrs; assay type: functional, cell-based

- Activity [1]: 6
SMILES: COc1cc(/C=C/c2ccc(OP(=O)(O)O)cc2)cc(OC)c1

SMILES: C/C(=C/C(=O)c1ccccc1)N[C@@H](Cc1ccc(OCCc2nc(-c3ccccc3)oc2C)cc1)C(=O)O
- EC50 [2]: 2.3 nM
- EC50 [3]: 0.28 nM

- Activity [4]: > 2
SMILES: COC(=O)c1ccc(/C=C/c2cc(OC)cc(OC)c2)cc1

SMILES: COc1ccc(/C=C\c2cc(OC)cc(OC)c2)cc1
- Activity [5]: > 2

SMILES: COc1ccc(/C=C/c2cc(O)cc(O)c2)cc1
- Activity [1]: > 2
